In ChEMBL document CHEMBL5120945, “First-in-Class Allosteric Inhibitors of DNMT3A Disrupt Protein-Protein Interactions and Induce Acute Myeloid Leukemia Cell Differentiation” (J Med Chem, 2022):
One block for each molecule: values may come before it. Calls of active or inactive are those of the source. The rule behind the calls is not given here.

Assays:
[1] = target: T1, DNMT3A2/3L complex (Homo sapiens) (UniProt Q9Y6K1+Q9UJW3); experiment: Inhibition of wild type full length recombinant human DNMT3A expressed in NiCo21(DE3) competent Escherichia coli cells to DNMT3L (unknown origin) protein-protein interaction
T1 sequence (Q9UJW3 whole entry, looked up): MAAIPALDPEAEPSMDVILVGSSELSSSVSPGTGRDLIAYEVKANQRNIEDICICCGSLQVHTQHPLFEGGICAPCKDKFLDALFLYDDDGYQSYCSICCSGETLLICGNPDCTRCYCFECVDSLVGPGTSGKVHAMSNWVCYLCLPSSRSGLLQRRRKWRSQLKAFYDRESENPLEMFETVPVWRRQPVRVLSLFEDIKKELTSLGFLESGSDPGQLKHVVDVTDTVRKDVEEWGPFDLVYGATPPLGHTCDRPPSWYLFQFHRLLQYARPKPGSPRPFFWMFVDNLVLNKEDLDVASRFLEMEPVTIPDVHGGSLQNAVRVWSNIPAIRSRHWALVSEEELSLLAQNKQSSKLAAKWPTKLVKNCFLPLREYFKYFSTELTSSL
T1 sequence (Q9Y6K1 whole entry, looked up): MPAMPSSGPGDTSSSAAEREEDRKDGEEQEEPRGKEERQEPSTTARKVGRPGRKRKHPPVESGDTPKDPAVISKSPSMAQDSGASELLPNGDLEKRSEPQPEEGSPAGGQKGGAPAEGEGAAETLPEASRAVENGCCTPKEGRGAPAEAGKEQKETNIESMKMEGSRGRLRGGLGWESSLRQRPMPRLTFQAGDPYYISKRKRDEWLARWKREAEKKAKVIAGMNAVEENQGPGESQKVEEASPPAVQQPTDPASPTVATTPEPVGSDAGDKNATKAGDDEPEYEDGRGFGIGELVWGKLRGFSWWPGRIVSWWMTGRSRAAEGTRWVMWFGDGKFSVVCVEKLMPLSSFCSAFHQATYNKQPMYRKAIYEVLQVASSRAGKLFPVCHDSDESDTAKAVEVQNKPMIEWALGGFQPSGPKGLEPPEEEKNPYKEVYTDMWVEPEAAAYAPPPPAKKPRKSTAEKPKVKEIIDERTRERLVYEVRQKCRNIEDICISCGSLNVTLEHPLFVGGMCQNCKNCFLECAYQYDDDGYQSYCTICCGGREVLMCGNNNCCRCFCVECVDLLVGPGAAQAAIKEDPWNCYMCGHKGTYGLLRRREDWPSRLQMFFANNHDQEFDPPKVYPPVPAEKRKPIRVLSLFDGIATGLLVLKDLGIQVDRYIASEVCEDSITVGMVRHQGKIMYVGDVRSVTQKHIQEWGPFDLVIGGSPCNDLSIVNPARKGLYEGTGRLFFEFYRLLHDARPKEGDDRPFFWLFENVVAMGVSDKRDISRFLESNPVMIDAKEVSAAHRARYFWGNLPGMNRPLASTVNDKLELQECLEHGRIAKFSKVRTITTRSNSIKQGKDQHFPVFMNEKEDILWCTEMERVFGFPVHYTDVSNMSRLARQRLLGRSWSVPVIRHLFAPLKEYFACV

[2] = target: Lysine-specific demethylase 5A (Homo sapiens) (UniProt P29375); experiment: Inhibition of KDM5A (1 to 797) activity using 21-mer biotinylated H3K4me3 peptide measured after 40 mins by TR-FRET assay
Lysine-specific demethylase 5A (Homo sapiens), sequence (P29375 whole entry): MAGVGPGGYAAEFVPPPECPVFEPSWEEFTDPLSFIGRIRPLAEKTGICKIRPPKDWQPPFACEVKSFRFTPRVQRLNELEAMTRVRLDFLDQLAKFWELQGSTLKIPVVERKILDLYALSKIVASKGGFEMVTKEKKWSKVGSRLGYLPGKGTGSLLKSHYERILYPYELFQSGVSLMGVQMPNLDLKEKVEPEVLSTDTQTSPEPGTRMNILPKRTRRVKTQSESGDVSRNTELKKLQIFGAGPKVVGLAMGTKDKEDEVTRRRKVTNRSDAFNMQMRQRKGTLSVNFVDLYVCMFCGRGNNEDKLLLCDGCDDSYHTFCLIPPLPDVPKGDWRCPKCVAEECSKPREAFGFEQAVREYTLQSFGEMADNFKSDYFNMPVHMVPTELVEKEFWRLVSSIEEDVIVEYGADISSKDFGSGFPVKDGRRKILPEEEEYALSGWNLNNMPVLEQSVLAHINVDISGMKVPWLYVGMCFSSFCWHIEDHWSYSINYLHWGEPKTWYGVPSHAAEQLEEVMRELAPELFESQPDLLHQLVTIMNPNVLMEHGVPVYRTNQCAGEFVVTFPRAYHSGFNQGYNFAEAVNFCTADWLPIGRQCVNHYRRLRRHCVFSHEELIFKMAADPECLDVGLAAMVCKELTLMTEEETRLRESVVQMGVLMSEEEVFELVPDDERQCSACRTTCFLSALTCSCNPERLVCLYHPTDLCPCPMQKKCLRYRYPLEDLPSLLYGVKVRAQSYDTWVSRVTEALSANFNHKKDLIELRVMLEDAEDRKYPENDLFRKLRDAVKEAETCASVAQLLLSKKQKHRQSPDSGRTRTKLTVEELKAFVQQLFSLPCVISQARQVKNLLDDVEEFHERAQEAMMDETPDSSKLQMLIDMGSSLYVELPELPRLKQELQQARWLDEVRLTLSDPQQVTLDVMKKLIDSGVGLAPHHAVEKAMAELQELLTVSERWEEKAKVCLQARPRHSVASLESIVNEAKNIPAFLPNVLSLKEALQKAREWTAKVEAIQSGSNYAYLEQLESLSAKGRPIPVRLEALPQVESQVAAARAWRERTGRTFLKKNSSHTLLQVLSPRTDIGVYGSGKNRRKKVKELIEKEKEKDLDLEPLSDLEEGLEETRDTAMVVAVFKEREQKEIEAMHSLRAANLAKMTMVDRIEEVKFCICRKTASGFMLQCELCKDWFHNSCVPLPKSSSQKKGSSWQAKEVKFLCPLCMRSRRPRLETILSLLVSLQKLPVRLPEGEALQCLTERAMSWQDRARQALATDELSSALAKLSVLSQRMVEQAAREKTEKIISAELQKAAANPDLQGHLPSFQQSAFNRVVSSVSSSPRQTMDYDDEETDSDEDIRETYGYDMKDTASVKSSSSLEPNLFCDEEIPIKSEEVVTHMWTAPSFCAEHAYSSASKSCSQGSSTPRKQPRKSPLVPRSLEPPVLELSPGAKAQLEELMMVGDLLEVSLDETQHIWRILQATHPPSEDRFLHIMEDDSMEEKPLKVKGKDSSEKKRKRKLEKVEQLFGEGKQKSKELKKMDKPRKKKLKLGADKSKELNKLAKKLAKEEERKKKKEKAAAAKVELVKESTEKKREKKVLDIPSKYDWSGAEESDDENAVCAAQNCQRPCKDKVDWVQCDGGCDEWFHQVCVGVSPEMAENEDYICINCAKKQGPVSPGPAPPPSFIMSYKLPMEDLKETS

Homo sapiens [3] = organism: Homo sapiens; experiment: (§1) Inhibition of wild type full length recombinant human DNMT3A expressed in NiCo21(DE3) competent Escherichia coli cells to human TDG protein protein interaction using FAM/TGGATATCTAGGGGCGCTATGATAT as substrate incubated for 5 mins by microplate reader based fluorescence anisotropy assay; conditions: DDE = dose-dependent effect
[4] = target: DNA (cytosine-5)-methyltransferase 3A (Homo sapiens) (UniProt Q9Y6K1); experiment: as §1, with “assessed as decrease the fluorescence anisotrophy of DNA bound” for “to human TDG”, “protein” for “protein protein interaction”
DNA (cytosine-5)-methyltransferase 3A (Homo sapiens), sequence (Q9Y6K1 whole entry, looked up): as the sequence (Q9Y6K1 whole entry, looked up) above

Homo sapiens [5] = organism: Homo sapiens; experiment: Inhibition of full length recombinant human DNMT3A R882H mutant expressed in NiCo21(DE3) competent Escherichia coli cells to DNMT3L (unknown origin) using FAM-DNA as substrate
[6] = target: DNA (cytosine-5)-methyltransferase 3A (Homo sapiens) (UniProt Q9Y6K1); experiment: Inhibition of H3 peptide activated human full length DNMT3A expressed in NiCo21(DE3) competent Escherichia coli cells at 60 uM
Homo sapiens [7] = organism: Homo sapiens; experiment: Inhibition of full length recombinant human DNMT3A R882H mutant expressed in NiCo21(DE3) competent Escherichia coli cells
Homo sapiens [8] = organism: Homo sapiens; experiment: Inhibition of wild type full length recombinant human DNMT3A expressed in NiCo21(DE3) competent Escherichia coli cells to human p53 protein-protein interaction using FAM/TGGATATCTAGGGGCGCTATGATAT as substrate incubated for 5 mins by microplate reader based fluorescence anisotropy assay; conditions: DDE = dose-dependent effect
[9] = target: T1, DNMT3A2/3L complex (Homo sapiens); experiment: […] of wild type full length recombinant human DNMT3A expressed in NiCo21(DE3) competent Escherichia coli cells to DNMT3L protein-protein interaction
Homo sapiens [10] = organism: Homo sapiens; experiment: Inhibition of full length recombinant human DNMT3A R882H mutant expressed in NiCo21(DE3) competent Escherichia coli cells to DNMT3L (unknown origin) protein-protein interaction
Homo sapiens [11] = organism: Homo sapiens; experiment: Inhibition of full length recombinant human DNMT3A R882H mutant expressed in NiCo21(DE3) competent Escherichia coli cells to human p53
Homo sapiens [12] = organism: Homo sapiens; experiment: Inhibition of full length recombinant human DNMT3A R882H mutant expressed in NiCo21(DE3) competent Escherichia coli cells to human TDG
[13] = target: T1, DNMT3A2/3L complex (Homo sapiens); experiment: Inhibition of DNMT3L-mediated wild type full length recombinant human DNMT3A hetero tetramer expressed in NiCo21(DE3) competent Escherichia coli cells to DNMT3L protein-protein interaction assessed as DNA methylation using poly dl-dC as substrate incubated for 1 hr
HL-60 [14] = experiment: Induction of DNA methylation in human HL-60 cells at 5 uM by ELISA; assay type: functional, cell-based; conditions: time 3.0 day, TDE = time-dependent effect
OCI-AML-3 [15] = experiment: Induction of DNA methylation in human OCI-AML-3 cells at 5 uM by ELISA; assay type: functional, cell-based; conditions: time 3.0 day, TDE = time-dependent effect
Homo sapiens [16] = organism: Homo sapiens; experiment: Inhibition of full length recombinant human DNMT3A R736 mutant tetramer expressed in NiCo21(DE3) competent Escherichia coli cells
THP-1 [17] = experiment: Induction of apoptosis in human THP-1 cells measured after 72 hrs by annexinV staining based flow cytometry; assay type: functional, cell-based; conditions: dose 7-12 µM, DDE = dose-dependent effect
K562 [18] = experiment: Induction of DNA methylation in human K562 cells at 5 uM by ELISA; assay type: functional, cell-based; conditions: time 3.0 day, TDE = time-dependent effect
Kasumi 1 [19] = experiment: Induction of apoptosis in human Kasumi 1 cells measured after 72 hrs by annexinV staining based flow cytometry; assay type: functional, cell-based; conditions: dose 7-12 µM, DDE = dose-dependent effect
Homo sapiens [20] = organism: Homo sapiens; experiment: Inhibition of full length recombinant human DNMT3A R771A mutant expressed in NiCo21(DE3) competent Escherichia coli cells to DNMT3L (unknown origin) protein-protein interaction using FAM-DNA as substrate by fluorescence anisotropy assay
HL-60 [21] = experiment: Induction of apoptosis in human HL-60 cells measured after 72 hrs by annexinVstaining based flow cytometry; assay type: functional, cell-based; conditions: dose 7-12 µM, DDE = dose-dependent effect
OCI-AML-3 [22] = experiment: Induction of myeloid differentiation in human OCI-AML-3 cells assessed as increase in CD11b level measured after 72 hrs by propidium iodide staining based flow cytometry; assay type: functional, cell-based; conditions: dose 5-10 µM, DDE = dose-dependent effect
Kasumi 1 [23] = experiment: Induction of myeloid differentiation in human Kasumi 1 cells assessed as increase in CD11b level measured after 72 hrs by propidium iodide staining based flow cytometry; assay type: functional, cell-based; conditions: DDE = dose-dependent effect
Homo sapiens [24] = organism: Homo sapiens; experiment: Inhibition of full length recombinant human DNMT3A R771A mutant tetramer expressed in NiCo21(DE3) competent Escherichia coli cells to DNMT3L (unknown origin) protein-protein interaction preincubated for 1 hr
Homo sapiens [25] = organism: Homo sapiens; experiment: Inhibition of full length recombinant human DNMT3A R729A mutant tetramer expressed in NiCo21(DE3) competent Escherichia coli cells to DNMT3L (unknown origin) protein-protein interaction preincubated for 1 hr
[26] = target: T1, DNMT3A2/3L complex (Homo sapiens); experiment: Inhibition of DNMT3L-mediated wild type full length recombinant human DNMT3A homo tetramer expressed in NiCo21(DE3) competent Escherichia coli cells to DNMT3L protein-protein interaction assessed as DNA methylation using poly dl-dC as substrate incubated for 1 hr
HL-60 [27] = experiment: Induction of myeloid differentiation in human HL-60 cells assessed as increase in CD11b level measured after 72 hrs by propidium iodide staining based flow cytometry; assay type: functional, cell-based; conditions: DDE = dose-dependent effect
MOLM-13 [28] = experiment: Induction of apoptosis in human MOLM-13 cells measured after 72 hrs by annexinV staining based flow cytometry; assay type: functional, cell-based; conditions: dose 7-12 µM, DDE = dose-dependent effect
OCI-AML-3 [29] = experiment: Induction of apoptosis in human OCI-AML-3 cells measured after 72 hrs by annexinV staining based flow cytometry; assay type: functional, cell-based; conditions: dose 7-12 µM, DDE = dose-dependent effect
Homo sapiens [30] = organism: Homo sapiens; experiment: Inhibition of full length recombinant human DNMT3A E733 mutant tetramer expressed in NiCo21(DE3) competent Escherichia coli cells
Homo sapiens [31] = organism: Homo sapiens; experiment: Inhibition of full length recombinant human DNMT3A R736A mutant tetramer expressed in NiCo21(DE3) competent Escherichia coli cells to DNMT3L (unknown origin) protein-protein interaction preincubated for 1 hr
THP-1 [32] = experiment: Induction of myeloid differentiation in human THP-1 cells assessed as increase in CD11b level measured after 72 hrs by propidium iodide staining based flow cytometry; assay type: functional, cell-based; conditions: dose 5-10 µM, DDE = dose-dependent effect
MOLM-13 [33] = experiment: Induction of myeloid differentiation in human MOLM-13 cells assessed as increase in CD11b level measured after 72 hrs by propidium iodide staining based flow cytometry; assay type: functional, cell-based; conditions: dose 5-10 µM, DDE = dose-dependent effect
MV4-11 [34] = experiment: Induction of myeloid differentiation in human MV4-11 cells assessed as increase in CD11b level measured after 72 hrs by propidium iodide staining based flow cytometry; assay type: functional, cell-based; conditions: dose 5-10 µM, DDE = dose-dependent effect
K562 [35] = experiment: Induction of myeloid differentiation in human K562 cells assessed as increase in CD11b level measured after 72 hrs by propidium iodide staining based flow cytometry; assay type: functional, cell-based; conditions: DDE = dose-dependent effect
Homo sapiens [36] = organism: Homo sapiens; experiment: Inhibition of full length recombinant human DNMT3A E733A mutant tetramer expressed in NiCo21(DE3) competent Escherichia coli cells to DNMT3L (unknown origin) protein-protein interaction preincubated for 1 hr
K562 [37] = experiment: Induction of apoptosis in human K562 cells measured after 72 hrs by annexinV staining based flow cytometry; assay type: functional, cell-based; conditions: dose 7-12 µM, DDE = dose-dependent effect
MV4-11 [38] = experiment: Induction of apoptosis in human MV4-11 cells measured after 72 hrs by annexinVstaining based flow cytometry; assay type: functional, cell-based; conditions: dose 7-12 µM, DDE = dose-dependent effect
Homo sapiens [39] = organism: Homo sapiens; experiment: Inhibition of full length recombinant human DNMT3A R729 mutant tetramer expressed in NiCo21(DE3) competent Escherichia coli cells

inhibition [1]: Active
inhibition [2]: Active
inhibition [4]: Active
inhibition [6]: Active
Activity [9]: Active
SMILES: COc1ccc(C2=NN(C3CCCCCC3)C(=O)C2(C)C)cc1OCCCCOc1ccc(-c2nn[nH]n2)cc1
inhibition (Homo sapiens [3]): Dde
inhibition (Homo sapiens [5]): Active
inhibition (Homo sapiens [7]): Active
inhibition (Homo sapiens [8]): Dde
inhibition (Homo sapiens [10]): Active
inhibition (Homo sapiens [11]): Active
inhibition (Homo sapiens [12]): Active

inhibition [1]: Active
inhibition [2]: Active
inhibition [13]: Active
inhibition [4]: Active
inhibition [6]: Active
Activity [9]: Active
inhibition [26]: Active
SMILES: COc1ccc(C2=NN(C3CCCCCC3)C(=O)[C@@H]3CC=CC[C@H]23)cc1OCCCCOc1ccc(-c2nnn[nH]2)cc1
inhibition (Homo sapiens [3]): Dde
Activity (HL-60 [14]): Tde
Activity (OCI-AML-3 [15]): Tde
inhibition (Homo sapiens [16]): Active
Activity (THP-1 [17]): Dde
Activity (K562 [18]): Tde
inhibition (Homo sapiens [5]): Active
Activity (Kasumi 1 [19]): Dde
inhibition (Homo sapiens [20]): Active
Activity (HL-60 [21]): Dde
Activity (OCI-AML-3 [22]): Dde
Activity (Kasumi 1 [23]): Dde
inhibition (Homo sapiens [24]): Active
inhibition (Homo sapiens [25]): Active
inhibition (Homo sapiens [7]): Active
inhibition (Homo sapiens [8]): Dde
inhibition (Homo sapiens [10]): Active
Activity (HL-60 [27]): Dde
Activity (MOLM-13 [28]): Dde
Activity (OCI-AML-3 [29]): Dde
inhibition (Homo sapiens [30]): Active
inhibition (Homo sapiens [31]): Active
inhibition (Homo sapiens [11]): Active
Activity (THP-1 [32]): Dde
Activity (MOLM-13 [33]): Dde
Activity (MV4-11 [34]): Dde
Activity (K562 [35]): Dde
inhibition (Homo sapiens [36]): Active
Activity (K562 [37]): Dde
Activity (MV4-11 [38]): Dde
inhibition (Homo sapiens [39]): Active
inhibition (Homo sapiens [12]): Active
